Measured values published in US8952024B2, “Herbicidal pyrimidone derivatives” (E I du Pont de Nemours and Company, priority 2009, dated 2015).

Columns and labels:
Assay in all cases: Test B pre-/postemergence plant response
Type in all cases: in vivo
[1] = tested on: Italian ryegrass (Lolium multiflorum)
Summary of the method: (§1)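 Plants treated either at seeding (loam/sand soil) or postemergence at 2 to 18 cm height, using a surfactant-containing non-phytotoxic solvent formulation. Evaluation was visual after 13 to 15 days, 0 to 100 scale relative to controls.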

[2] = tested on: blackgrass (Alopecurus myosuroides)
Summary of the method: as §1

[3] = tested on: cocklebur (Xanthium strumarium)
Summary of the method: as §1

corn (Zea mays) = tested on: corn (Zea mays)
Summary of the method: as §1

[4] = tested on: giant foxtail (Setaria faberii)
Summary of the method: as §1

[5] = tested on: goosegrass (Eleusine indica)
Summary of the method: as §1

[6] = tested on: green foxtail (Setaria viridis)
Summary of the method: as §1

[7] = tested on: johnsongrass (Sorghum halepense)
Summary of the method: as §1

kochia (Kochia scoparia) = tested on: kochia (Kochia scoparia)
Summary of the method: as §1

[8] = tested on: large crabgrass (Digitaria sanguinalis)
Summary of the method: as §1

[9] = tested on: morningglory (Ipomoea coccinea)
Summary of the method: as §1

[10] = tested on: ragweed (common ragweed, Ambrosia elatior)
Summary of the method: as §1

soybean (Glycine max) = tested on: soybean (Glycine max)
Summary of the method: as §1

[11] = tested on: velvetleaf (Abutilon theophrasti)
Summary of the method: as §1

[12] = 31 g ai/ha, postemergence, scale 0 to 100, 0 is no effect, 100 is complete control
[13] = Postemergence, 62 g ai/ha, scale 0 (no effect) to 100 (complete control), 13 to 15 days
[14] = Postemergence, 125 g ai/ha, visual rating after 13 to 15 days, scale 0 (no effect) to 100 (complete control)
[15] = Postemergence, 250 g ai/ha, scale 0 to 100 (0 no effect, 100 complete control)
[16] = Preemergence, 31 g ai/ha, scale 0 to 100 (0 no effect, 100 complete control)
[17] = Preemergence, 62 g ai/ha, scale 0 to 100 (0 no effect, 100 complete control)
[18] = Preemergence, 125 g ai/ha, scale 0 to 100, 0 no effect, 100 complete control
[19] = 250 g ai/ha, Preemergence, 0 to 100 scale

O=C1CCCC(O)=C1C(=O)c1cnc(-c2ccccc2)n(CC2CCCO2)c1=O (centres unmarked) [Compound 59]
85: Plant response rating, Cocklebur [3, 12] | Plant response rating, Cocklebur [3, 13] | Plant response rating, Crabgrass, Large [8, 13] | Plant response rating, Velvetleaf [11, 12]
20: Plant response rating, Ryegrass, Italian [1, 18]
5: Plant response rating, Ryegrass, Italian [1, 12]
90: Plant response rating, Cocklebur [3, 14] | Plant response rating, Foxtail, Giant [4, 13] | Plant response rating, Foxtail, Green [6, 18] | Plant response rating, Johnsongrass [7, 19] | Plant response rating, Ragweed [10, 14] | Plant response rating, Ragweed [10, 17] | Plant response rating, Ragweed [10, 18] | Plant response rating, Soybean (soybean (Glycine max); [12]) | Plant response rating, Velvetleaf [11, 13] | Plant response rating, Velvetleaf [11, 17]
50: Plant response rating, Ryegrass, Italian [1, 13] | Plant response rating, Foxtail, Green [6, 12] | Plant response rating, Morningglory [9, 13]
60: Plant response rating, Blackgrass [2, 15] | Plant response rating, Foxtail, Giant [4, 18] | Plant response rating, Kochia (kochia (Kochia scoparia); [18])
98: Plant response rating, Goosegrass [5, 16] | Plant response rating, Goosegrass [5, 17] | Plant response rating, Foxtail, Green [6, 19] | Plant response rating, Kochia (kochia (Kochia scoparia); [19]) | Plant response rating, Crabgrass, Large [8, 19] | Plant response rating, Crabgrass, Large [8, 18] | Plant response rating, Velvetleaf [11, 15]
70: Plant response rating, Ryegrass, Italian [1, 14] | Plant response rating, Foxtail, Green [6, 13] | Plant response rating, Foxtail, Green [6, 14] | Plant response rating, Foxtail, Green [6, 15] | Plant response rating, Foxtail, Green [6, 17]
35: Plant response rating, Blackgrass [2, 13]
95: Plant response rating, Foxtail, Giant [4, 14] | Plant response rating, Foxtail, Giant [4, 15] | Plant response rating, Goosegrass [5, 14] | Plant response rating, Goosegrass [5, 15] | Plant response rating, Crabgrass, Large [8, 14] | Plant response rating, Crabgrass, Large [8, 17] | Plant response rating, Ragweed [10, 15] | Plant response rating, Soybean (soybean (Glycine max); [13]) | Plant response rating, Soybean (soybean (Glycine max); [14]) | Plant response rating, Soybean (soybean (Glycine max); [15]) | Plant response rating, Velvetleaf [11, 14]
30: Plant response rating, Blackgrass [2, 18]
75: Plant response rating, Cocklebur [3, 19] | Plant response rating, Corn (corn (Zea mays); [14]) | Plant response rating, Corn (corn (Zea mays); [15]) | Plant response rating, Foxtail, Giant [4, 12] | Plant response rating, Foxtail, Giant [4, 19] | Plant response rating, Goosegrass [5, 12] | Plant response rating, Johnsongrass [7, 13] | Plant response rating, Kochia (kochia (Kochia scoparia); [15]) | Plant response rating, Ragweed [10, 12] | Plant response rating, Ragweed [10, 16] | Plant response rating, Velvetleaf [11, 16]
55: Plant response rating, Crabgrass, Large [8, 16] | Plant response rating, Morningglory [9, 18]
80: Plant response rating, Ryegrass, Italian [1, 15] | Plant response rating, Goosegrass [5, 13] | Plant response rating, Johnsongrass [7, 18] | Plant response rating, Crabgrass, Large [8, 12] | Plant response rating, Morningglory [9, 14] | Plant response rating, Morningglory [9, 15] | Plant response rating, Ragweed [10, 13]
10: Plant response rating, Blackgrass [2, 12] | Plant response rating, Cocklebur [3, 18] | Plant response rating, Kochia (kochia (Kochia scoparia); [13])
0: Plant response rating, Ryegrass, Italian [1, 16] | Plant response rating, Ryegrass, Italian [1, 17] | Plant response rating, Blackgrass [2, 16] | Plant response rating, Blackgrass [2, 17] | Plant response rating, Cocklebur [3, 16] | Plant response rating, Cocklebur [3, 17] | Plant response rating, Corn (corn (Zea mays); [19]) | Plant response rating, Corn (corn (Zea mays); [13]) | Plant response rating, Corn (corn (Zea mays); [16]) | Plant response rating, Corn (corn (Zea mays); [17]) | Plant response rating, Corn (corn (Zea mays); [18]) | Plant response rating, Foxtail, Giant [4, 16] | Plant response rating, Foxtail, Giant [4, 17] | Plant response rating, Kochia (kochia (Kochia scoparia); [16]) | Plant response rating, Morningglory [9, 17] | Plant response rating, Soybean (soybean (Glycine max); [17]) | Plant response rating, Soybean (soybean (Glycine max); [18])
45: Plant response rating, Kochia (kochia (Kochia scoparia); [14]) | Plant response rating, Kochia (kochia (Kochia scoparia); [17])
100: Plant response rating, Cocklebur [3, 15] | Plant response rating, Goosegrass [5, 19] | Plant response rating, Goosegrass [5, 18] | Plant response rating, Johnsongrass [7, 14] | Plant response rating, Johnsongrass [7, 15] | Plant response rating, Crabgrass, Large [8, 15] | Plant response rating, Velvetleaf [11, 18]
40: Plant response rating, Blackgrass [2, 19] | Plant response rating, Blackgrass [2, 14]
